Calls of active or inactive are those of the source.
What was measured:
Genome polyprotein = Genome polyprotein (dengue virus type 2, UniProt P29990); assay: flavivirus cap methylation enzyme inhibition – biochemical, confirmation dose response, primary screen (AID 588689); type: functional
[1] = target: T1, Histone-lysine N-methyltransferase NSD2 (Homo sapiens, UniProt O96028); type: biochemical
T1 sequence (O96028 whole entry): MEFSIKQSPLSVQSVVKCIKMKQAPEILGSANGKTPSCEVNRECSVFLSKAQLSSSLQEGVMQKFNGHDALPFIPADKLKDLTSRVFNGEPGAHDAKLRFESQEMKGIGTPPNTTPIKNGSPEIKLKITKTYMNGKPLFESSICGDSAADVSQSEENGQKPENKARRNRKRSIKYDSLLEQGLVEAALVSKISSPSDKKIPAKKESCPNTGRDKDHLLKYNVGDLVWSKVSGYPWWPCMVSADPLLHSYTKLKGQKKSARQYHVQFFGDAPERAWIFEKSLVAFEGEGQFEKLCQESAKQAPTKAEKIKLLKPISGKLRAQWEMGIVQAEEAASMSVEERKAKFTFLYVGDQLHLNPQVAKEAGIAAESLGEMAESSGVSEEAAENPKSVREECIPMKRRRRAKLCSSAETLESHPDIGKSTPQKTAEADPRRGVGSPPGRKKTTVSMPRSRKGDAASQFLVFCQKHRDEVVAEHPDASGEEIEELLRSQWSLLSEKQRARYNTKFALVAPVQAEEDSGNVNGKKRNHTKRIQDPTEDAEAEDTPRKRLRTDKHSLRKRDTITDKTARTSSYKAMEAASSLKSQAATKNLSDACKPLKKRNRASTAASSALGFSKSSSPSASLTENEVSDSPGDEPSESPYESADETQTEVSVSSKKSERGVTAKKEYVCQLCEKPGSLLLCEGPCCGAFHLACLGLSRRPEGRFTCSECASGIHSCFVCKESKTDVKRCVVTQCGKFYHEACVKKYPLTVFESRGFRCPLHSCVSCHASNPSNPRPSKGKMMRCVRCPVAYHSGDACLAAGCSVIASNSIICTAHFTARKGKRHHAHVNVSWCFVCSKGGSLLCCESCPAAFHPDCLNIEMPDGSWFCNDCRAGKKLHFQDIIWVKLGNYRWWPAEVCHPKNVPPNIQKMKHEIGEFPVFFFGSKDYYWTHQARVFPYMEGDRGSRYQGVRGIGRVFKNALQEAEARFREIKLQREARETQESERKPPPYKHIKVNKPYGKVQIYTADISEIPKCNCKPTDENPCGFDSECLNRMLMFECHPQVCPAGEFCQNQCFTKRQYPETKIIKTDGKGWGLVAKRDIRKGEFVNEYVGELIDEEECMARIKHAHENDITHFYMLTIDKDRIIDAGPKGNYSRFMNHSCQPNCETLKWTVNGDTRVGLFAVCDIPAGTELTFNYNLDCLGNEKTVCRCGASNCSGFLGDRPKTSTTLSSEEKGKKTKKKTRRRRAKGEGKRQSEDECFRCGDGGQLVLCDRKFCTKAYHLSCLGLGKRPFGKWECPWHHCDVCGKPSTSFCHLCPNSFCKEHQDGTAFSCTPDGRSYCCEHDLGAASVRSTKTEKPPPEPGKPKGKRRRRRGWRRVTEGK

[2] = target: Matrix metalloproteinase-14 (Homo sapiens, UniProt P50281); assay: Dose Response confirmation of uHTS hits for a small molecule inhibitors of MT1-MMP activation in a fluorescence assay set 1.; type: functional
[3] = target: T2, Small ubiquitin-related modifier 1 (Homo sapiens, UniProt P63165); assay: SUMO1 protein interaction blockers, potency – biochemical, fluorescence polarization, uHTS hits, dose response (AID 624382); type: functional; conditions: read-out: IC50_Mean
T2 sequence (P63165 whole entry): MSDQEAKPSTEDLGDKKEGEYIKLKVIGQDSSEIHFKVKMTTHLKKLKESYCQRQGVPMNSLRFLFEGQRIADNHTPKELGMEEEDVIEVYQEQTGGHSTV

[4] = target: T3, Rac GTPase-activating protein 1 (Homo sapiens, UniProt Q9H0H5); assay: blockers of MgcRacGAP-driven Rac1 GTP hydrolysis – biochemical, ADP Hunter fluorescence, primary and confirmatory, confirmation (AID 624330); type: functional
T3 sequence (Q9H0H5 whole entry): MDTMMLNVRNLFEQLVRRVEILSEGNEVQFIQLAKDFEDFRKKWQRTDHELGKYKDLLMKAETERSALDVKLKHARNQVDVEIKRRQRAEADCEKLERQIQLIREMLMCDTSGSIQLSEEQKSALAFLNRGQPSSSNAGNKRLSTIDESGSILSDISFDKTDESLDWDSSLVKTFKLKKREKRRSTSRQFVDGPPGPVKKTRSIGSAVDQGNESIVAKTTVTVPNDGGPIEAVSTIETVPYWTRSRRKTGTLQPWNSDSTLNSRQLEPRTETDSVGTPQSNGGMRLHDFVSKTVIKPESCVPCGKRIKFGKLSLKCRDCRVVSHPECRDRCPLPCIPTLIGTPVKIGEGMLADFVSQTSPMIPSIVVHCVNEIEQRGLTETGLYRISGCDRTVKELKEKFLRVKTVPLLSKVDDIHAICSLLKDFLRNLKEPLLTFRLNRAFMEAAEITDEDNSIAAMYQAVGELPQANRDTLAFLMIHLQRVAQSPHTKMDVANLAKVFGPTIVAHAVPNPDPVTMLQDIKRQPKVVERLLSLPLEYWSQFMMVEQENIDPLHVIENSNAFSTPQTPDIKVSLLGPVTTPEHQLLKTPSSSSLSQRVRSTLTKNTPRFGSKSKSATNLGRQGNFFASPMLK

[5] = target: T2, Small ubiquitin-related modifier 1; assay: SUMO1 protein-protein binding blockers, potency – biochemical, FRET, dose response (AID 624383); type: functional; conditions: read-out: IC50_Mean
ORF 73 = ORF 73 (Human herpesvirus 8, UniProt O40947); assay: KSHV LANA DNA-binding disruption – biochemical, fluorescence polarization, cherry-picked samples, dose response (AID 504725); design: species or system Human gammaherpesvirus 8;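 further: fluorescence polarization of a labeled DNA duplex reporting LANA DNA binding; potency is for inhibitors that block LANA binding to the DNA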
ORF 73, sequence (O40947 whole entry): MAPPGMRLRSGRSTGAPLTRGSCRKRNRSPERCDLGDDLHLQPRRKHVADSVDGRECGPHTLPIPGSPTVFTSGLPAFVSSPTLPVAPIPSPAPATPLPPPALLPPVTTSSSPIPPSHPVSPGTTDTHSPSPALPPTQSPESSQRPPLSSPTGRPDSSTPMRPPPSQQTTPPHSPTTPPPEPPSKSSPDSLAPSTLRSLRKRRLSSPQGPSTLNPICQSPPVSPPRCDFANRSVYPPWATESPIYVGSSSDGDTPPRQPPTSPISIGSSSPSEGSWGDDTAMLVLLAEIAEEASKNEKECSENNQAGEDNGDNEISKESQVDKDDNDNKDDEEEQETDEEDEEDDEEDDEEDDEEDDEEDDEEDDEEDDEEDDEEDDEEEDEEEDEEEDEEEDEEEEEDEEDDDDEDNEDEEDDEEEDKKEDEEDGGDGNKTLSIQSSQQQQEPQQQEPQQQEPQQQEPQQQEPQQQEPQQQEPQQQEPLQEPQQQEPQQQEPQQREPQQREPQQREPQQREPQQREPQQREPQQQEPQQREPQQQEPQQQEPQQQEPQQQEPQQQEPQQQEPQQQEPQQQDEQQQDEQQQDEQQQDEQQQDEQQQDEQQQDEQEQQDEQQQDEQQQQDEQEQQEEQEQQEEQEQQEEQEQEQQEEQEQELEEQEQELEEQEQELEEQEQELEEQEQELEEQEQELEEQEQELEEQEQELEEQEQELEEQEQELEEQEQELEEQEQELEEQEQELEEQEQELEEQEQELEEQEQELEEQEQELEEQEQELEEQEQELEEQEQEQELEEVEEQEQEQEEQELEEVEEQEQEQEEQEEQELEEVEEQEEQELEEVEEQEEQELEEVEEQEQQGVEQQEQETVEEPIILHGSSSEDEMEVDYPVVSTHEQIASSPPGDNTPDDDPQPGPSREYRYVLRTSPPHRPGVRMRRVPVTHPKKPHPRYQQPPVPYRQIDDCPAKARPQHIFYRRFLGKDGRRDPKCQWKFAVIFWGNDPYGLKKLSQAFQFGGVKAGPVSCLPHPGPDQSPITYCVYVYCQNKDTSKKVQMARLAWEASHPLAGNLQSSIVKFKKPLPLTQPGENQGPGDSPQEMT

[6] = target: T4, Sentrin-specific protease 8 (Homo sapiens, UniProt Q96LD8); type: functional
T4 sequence (Q96LD8 whole entry): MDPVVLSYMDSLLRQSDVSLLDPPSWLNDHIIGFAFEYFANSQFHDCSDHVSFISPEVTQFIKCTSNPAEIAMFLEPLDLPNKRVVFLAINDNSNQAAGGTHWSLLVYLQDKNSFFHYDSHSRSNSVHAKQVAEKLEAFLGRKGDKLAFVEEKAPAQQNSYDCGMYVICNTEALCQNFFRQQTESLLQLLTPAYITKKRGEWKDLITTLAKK

Fatty acid synthase [7] = target: T5, Fatty acid synthase (Homo sapiens, UniProt P49327); assay: inhibition of human FAS-TE enzyme activity – biochemical, endpoint fluorescence intensity, uHTS hits, dose response (AID 624327); type: functional;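 further: fluorescence from hydrolysis of an O-methyl fluorescein acyl ester substrate by the enzyme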
T5 sequence (P49327 whole entry): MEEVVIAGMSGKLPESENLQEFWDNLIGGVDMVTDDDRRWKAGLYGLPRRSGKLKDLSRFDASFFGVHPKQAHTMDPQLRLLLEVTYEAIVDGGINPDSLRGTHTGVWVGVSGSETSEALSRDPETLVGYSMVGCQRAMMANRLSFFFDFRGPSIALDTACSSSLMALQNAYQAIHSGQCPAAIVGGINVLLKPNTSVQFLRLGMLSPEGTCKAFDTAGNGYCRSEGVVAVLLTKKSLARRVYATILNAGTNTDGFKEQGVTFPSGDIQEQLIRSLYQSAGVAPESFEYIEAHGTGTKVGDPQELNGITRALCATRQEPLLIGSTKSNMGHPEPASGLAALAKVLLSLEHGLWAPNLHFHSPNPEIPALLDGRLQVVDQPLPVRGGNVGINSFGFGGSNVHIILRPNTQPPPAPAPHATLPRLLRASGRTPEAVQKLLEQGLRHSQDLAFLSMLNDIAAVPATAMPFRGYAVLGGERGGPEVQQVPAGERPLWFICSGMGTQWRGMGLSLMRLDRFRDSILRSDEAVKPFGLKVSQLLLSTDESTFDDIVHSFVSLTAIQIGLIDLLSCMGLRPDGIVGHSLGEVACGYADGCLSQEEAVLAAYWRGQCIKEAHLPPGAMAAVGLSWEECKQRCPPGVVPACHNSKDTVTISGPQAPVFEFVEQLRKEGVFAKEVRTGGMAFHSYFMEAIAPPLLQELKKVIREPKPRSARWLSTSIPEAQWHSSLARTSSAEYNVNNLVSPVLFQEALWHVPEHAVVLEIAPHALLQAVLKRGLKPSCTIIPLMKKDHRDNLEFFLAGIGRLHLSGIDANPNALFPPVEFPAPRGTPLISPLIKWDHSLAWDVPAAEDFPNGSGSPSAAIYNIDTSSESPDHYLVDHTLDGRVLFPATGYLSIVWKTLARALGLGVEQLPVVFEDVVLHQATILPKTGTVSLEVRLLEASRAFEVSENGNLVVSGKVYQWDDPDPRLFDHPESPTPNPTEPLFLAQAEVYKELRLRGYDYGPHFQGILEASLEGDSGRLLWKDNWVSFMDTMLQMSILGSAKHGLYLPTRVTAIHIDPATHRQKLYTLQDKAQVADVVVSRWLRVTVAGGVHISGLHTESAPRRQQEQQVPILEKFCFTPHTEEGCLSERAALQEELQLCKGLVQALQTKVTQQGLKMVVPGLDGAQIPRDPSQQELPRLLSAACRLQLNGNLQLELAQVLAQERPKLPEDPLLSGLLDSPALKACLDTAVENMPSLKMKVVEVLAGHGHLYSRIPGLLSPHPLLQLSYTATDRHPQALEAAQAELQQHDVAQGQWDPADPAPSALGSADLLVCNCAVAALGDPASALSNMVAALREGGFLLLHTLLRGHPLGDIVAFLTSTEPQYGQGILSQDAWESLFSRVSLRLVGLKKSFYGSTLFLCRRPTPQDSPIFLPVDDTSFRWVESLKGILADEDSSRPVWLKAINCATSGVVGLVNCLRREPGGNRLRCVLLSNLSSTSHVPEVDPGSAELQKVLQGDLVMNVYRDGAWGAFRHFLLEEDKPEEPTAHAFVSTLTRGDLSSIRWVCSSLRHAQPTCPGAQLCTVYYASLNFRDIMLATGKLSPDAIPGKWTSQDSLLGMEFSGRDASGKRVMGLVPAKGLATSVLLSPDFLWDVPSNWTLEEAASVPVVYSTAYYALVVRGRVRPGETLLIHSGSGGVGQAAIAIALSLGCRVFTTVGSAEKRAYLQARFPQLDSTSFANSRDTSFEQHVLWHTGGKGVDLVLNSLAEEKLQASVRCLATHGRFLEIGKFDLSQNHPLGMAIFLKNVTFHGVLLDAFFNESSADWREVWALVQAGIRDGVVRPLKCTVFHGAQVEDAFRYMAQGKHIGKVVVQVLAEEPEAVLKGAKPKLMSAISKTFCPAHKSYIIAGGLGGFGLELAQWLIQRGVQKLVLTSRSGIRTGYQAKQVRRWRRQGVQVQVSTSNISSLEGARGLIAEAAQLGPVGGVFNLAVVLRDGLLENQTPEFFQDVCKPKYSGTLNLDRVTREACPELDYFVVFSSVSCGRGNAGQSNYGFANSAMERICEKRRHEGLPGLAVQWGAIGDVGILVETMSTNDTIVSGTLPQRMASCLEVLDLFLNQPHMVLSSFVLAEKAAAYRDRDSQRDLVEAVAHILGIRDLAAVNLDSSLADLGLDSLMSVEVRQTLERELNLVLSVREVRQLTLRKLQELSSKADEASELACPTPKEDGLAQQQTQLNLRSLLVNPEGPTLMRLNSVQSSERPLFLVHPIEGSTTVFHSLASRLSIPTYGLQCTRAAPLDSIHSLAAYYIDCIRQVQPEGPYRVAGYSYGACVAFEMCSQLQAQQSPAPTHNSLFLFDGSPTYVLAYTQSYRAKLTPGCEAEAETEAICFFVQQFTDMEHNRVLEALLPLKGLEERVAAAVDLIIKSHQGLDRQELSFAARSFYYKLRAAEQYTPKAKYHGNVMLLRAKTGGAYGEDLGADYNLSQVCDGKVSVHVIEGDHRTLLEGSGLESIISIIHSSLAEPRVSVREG

[8] = target: T6, Small ubiquitin-related modifier 2 (Homo sapiens, UniProt P61956); assay: disruption of SUMO2 interaction with SIM peptide – biochemical, fluorescence polarization, uHTS hits, selectivity assay for SUMO1 interaction inhibitor project, dose response (AID 624385); type: functional; conditions: read-out: IC50_Mean
T6 sequence (P61956 whole entry): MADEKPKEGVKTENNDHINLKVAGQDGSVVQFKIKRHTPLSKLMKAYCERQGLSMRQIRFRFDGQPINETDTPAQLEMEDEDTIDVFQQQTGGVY

Nonstructural protein 1 = Nonstructural protein 1 (Influenza A virus, UniProt Q194T2); type: functional, Influenza A virus (A/California/07/2009(H1N1))
Nonstructural protein 1, sequence (Q194T2 whole entry): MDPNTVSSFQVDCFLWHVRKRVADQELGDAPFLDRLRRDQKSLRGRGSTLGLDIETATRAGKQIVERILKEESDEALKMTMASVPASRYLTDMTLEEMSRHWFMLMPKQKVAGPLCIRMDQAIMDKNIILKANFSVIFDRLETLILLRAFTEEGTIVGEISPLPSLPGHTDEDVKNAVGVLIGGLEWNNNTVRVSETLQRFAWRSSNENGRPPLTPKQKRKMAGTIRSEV

Fatty acid synthase [9] = target: T5, Fatty acid synthase; assay: inhibition of human FAS-TE enzyme activity – biochemical, kinetic fluorescence intensity, dose response (AID 624326); type: functional;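 further: rate of fluorescence rise from hydrolysis of a fluorogenic O-methyl fluorescein ester substrate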
[10] = target: T4, Sentrin-specific protease 8; type: functional; remark: listed apart in the source
[11] = target: T6, Small ubiquitin-related modifier 2; assay: SUMO2 binding disruption by SUMO1 hits – biochemical, FRET, human SUMO2, uHTS hits, selectivity assay for SUMO1 interaction inhibitor project, dose response (AID 624384); type: functional; conditions: read-out: IC50_Mean
[12] = inhibition of ADAM10 peptide cleavage – biochemical, FRET peptide substrate, recombinant human ADAM10, selectivity assay for ADAM17 exosite inhibitor project, dose response (AID 743259);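 further: ADAM10 enzyme cleaving a FRET peptide substrate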
[13] = target: Disintegrin and metalloproteinase domain-containing protein 17 (Homo sapiens, UniProt P78536); assay: exosite inhibitors of ADAM17, dose response, biochemical (AID 743260)
HeLa = assay: viability loss in HeLa cells – cell-based, ATP luminescence, cherry-pick samples, cytotoxicity control, dose response (AID 687004); type: functional; conditions: Homo sapiens
HEK293 = assay: viability loss in HEK293T cells – cell-based, ATP luminescence, cherry-pick samples, cytotoxicity control, dose response (AID 687005); type: functional; conditions: Homo sapiens;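 further: cells exposed to compound for 48 hours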
[14] = HEK293 Cytotoxicity Assay Measured in Cell-Based System Using Plate Reader - 7071-01_Inhibitor_Dose_CherryPick_Activity_Set2.; type: functional
NS3 = NS3 (Hepatitis C virus, UniProt A3EZJ3); assay: NS3h DNA-binding inhibition IC50 – biochemical, fluorescence polarization, ChemBridge library, dose response (AID 743264)
[15] = T. cruzi growth inhibition in host cells, dose response, cell-based, plate reader, dry powder, set 2 (AID 652275); type: functional
[16] = inhibition of bursicon-driven LGR2 cAMP signaling – cell-based, HEK293, CRE-luciferase reporter, cherry pick, dose response (AID 743342); type: functional
[17] = A549 cell cytotoxicity, dose response, cytotoxicity control, plate reader, cherry-pick, antagonist series (AID 743412); type: functional, cell-based
A549 = assay: viability loss in A549 cells – cell-based, plate reader, cherry-pick samples, cytotoxicity control, dose response (AID 687028); type: functional; conditions: Homo sapiens
[18] = HGIII-sPLA2 enzyme inhibition potency – biochemical, QFRET, IC50, dose response (AID 743457);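 further: green fluorescence rise as the enzyme cleaves BODIPY PC-A2 in liposomes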
[19] = target: T7, Polyadenylate-binding protein 1 (Homo sapiens, UniProt P11940); assay: MLLE domain peptide-binding blockers, IC50 – biochemical, fluorescence polarization, FITC-PAM2 peptide, dose response (AID 602259); type: functional; conditions: read-out: IC50_Mean
T7 sequence (P11940 whole entry, the tested form may be a part): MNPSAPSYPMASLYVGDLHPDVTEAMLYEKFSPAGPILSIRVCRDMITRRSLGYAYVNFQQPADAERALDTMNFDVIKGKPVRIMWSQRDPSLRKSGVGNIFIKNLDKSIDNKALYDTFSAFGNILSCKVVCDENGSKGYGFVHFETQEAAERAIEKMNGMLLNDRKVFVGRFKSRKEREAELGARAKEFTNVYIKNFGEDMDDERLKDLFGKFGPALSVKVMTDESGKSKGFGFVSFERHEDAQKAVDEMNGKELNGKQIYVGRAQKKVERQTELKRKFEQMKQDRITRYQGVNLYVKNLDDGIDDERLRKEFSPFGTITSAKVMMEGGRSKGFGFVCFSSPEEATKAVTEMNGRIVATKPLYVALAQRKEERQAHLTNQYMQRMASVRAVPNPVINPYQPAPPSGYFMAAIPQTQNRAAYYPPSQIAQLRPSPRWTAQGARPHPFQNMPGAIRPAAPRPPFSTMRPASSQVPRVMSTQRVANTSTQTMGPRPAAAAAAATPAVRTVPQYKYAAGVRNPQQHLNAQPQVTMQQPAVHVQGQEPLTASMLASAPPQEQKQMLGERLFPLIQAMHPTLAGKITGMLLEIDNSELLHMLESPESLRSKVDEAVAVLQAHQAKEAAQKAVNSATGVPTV

[20] = target: T7, Polyadenylate-binding protein 1; assay: MLLE binding blockers, Cy5 peptide tracer – biochemical, fluorescence polarization, Cy5-PAM2 peptide, secondary, miRNA deadenylation inhibitor project, dose response (AID 602260); type: functional; conditions: read-out: IC50_Mean

Structure (SMILES): Cc1ccccc1C1=C/C(=C(\SS/C(C(=O)c2ccc(OCC(=O)O)c(Cl)c2Cl)=C2\C=C(c3ccccc3C)SS2)C(=O)c2ccc(OCC(=O)O)c(Cl)c2Cl)SS1
- IC50 (Genome polyprotein): 9.25 µM (active)
- AC50 [1]: 6.35 µM (active)
- IC50 [2]: 22.7 µM (inactive)
- IC50 [3]: 2.48 µM (active)
- IC50 [4]: 61.1 µM (active)
- IC50 [5]: 50.2 µM (inactive)
- AC50 (ORF 73): 63.2 µM (active)
- IC50 [6]: 9.29 µM (active)
- IC50 (Fatty acid synthase [7]): 8.12 µM (active)
- IC50 [8]: 1.51 µM (active)
- IC50 (Nonstructural protein 1): 16.1 µM (active)
- IC50 (Fatty acid synthase [9]): 6.62 µM (active)
- IC50 [10]: 56.9 µM (active)
- IC50 [11]: 2.65 µM (active)

Structure (SMILES): CCOc1ccc(S(=O)(=O)Nc2ccc(F)cc2)c(C)c1C
- IC50 [12]: > 7.72 µM (active)
- IC50 [13]: > 69.5 µM (inactive)

Structure (SMILES): O=C(C[C@@H]1CC[C@H]2[C@@H](COC[C@H](O)CN2Cc2ccc(Oc3ccccc3)cc2)O1)Nc1nccs1
- AC50 (HeLa): 43.9 µM (active)
- AC50 (HEK293): 7.07 µM (active)
- AC50 [14]: 7.07 µM (active)

Structure (SMILES): Cc1ccc(N2C(=O)NC(=O)/C(=C/c3ccc(-c4cccc(C(=O)O)c4)o3)C2=O)cc1
- IC50 (NS3): 14.8 µM (inactive)

Structure (SMILES): CN(C)CC#Cc1cccc(-c2nc(C(=O)N[C@@H]3CCN(Cc4ccccc4)C3)cc3c2[C@@H](CCO)N([S+]([O-])C(C)(C)C)C3)c1 (some centres not stated)
- AC50 [15]: 0.0256 µM (active)

Structure (SMILES): C[C@H]1CCCCO[C@@H](CN(C)C(=O)Nc2ccc3c(c2)OCO3)[C@@H](C)CN([C@@H](C)CO)C(=O)c2cc(NC(=O)NC3CCCCC3)ccc2O1
- AC50 [16]: 16.9 µM (active)
- AC50 [17]: 35.3 µM (active)

Structure (SMILES): C[C@H]1CCCCO[C@H](CN(C)C(=O)Nc2ccc(C(F)(F)F)cc2)[C@@H](C)CN([C@@H](C)CO)C(=O)c2cc(NC(=O)C3CCCCC3)ccc2O1
- AC50 (A549): 20.8 µM (active)

Structure (SMILES): Cc1ccc(NC(=S)N/N=C2/CCCCc3ccccc32)cc1
- IC50 [18]: > 122 µM (inactive)
- IC50 [19]: > 66 µM (inactive)
- IC50 [20]: > 66 µM (inactive)
